Several values for one entry are separate records, joined by “and”; a condition that tells them apart may be missing. Identical values can stand only once. Numbers after ± are expanded uncertainties.
What was measured:
[1] = refractive index (other wavelength) (dimensionless); details: 101.3 kPa, Liquid, Wavelength=632.8 nm, Minimum deviation technique
[2] = refractive index (other wavelength) (dimensionless); xn = mol fraction of the nth substance listed; details: 101.3 kPa, Liquid, Wavelength=632.8 nm, Minimum deviation technique

CCCCCCCC [octane]
refractive index ([1]; 293.23 K): 1.3964 ± 0.0002 | refractive index ([1]; 294.23 K): 1.3959 ± 0.0002 | refractive index ([1]; 295.29 K): 1.3954 ± 0.0002 | refractive index ([1]; 296.27 K): 1.3949 ± 0.0002 | refractive index ([1]; 297.41 K): 1.3944 ± 0.0002 | refractive index ([1]; 298.48 K): 1.3939 ± 0.0002 | refractive index ([1]; 299.5 K): 1.3934 ± 0.0002

COC(=O)CCCCC(=O)OC [dimethyl 1,6-hexanedioate] + CCCCCCCCC
refractive index ([2]; 305.07 K, x1 = 0.101): 1.4 ± 0.0002 | refractive index ([2]; 305.07 K, x1 = 0.2): 1.4017 ± 0.0002 | refractive index ([2]; 305.07 K, x1 = 0.295): 1.404 ± 0.0002 | refractive index ([2]; 305.07 K, x1 = 0.39): 1.406 ± 0.0002 | refractive index ([2]; 305.07 K, x1 = 0.492): 1.4085 ± 0.0002 | refractive index ([2]; 305.07 K, x1 = 0.594): 1.411 ± 0.0002 | refractive index ([2]; 305.07 K, x1 = 0.713): 1.4143 ± 0.0002 | refractive index ([2]; 305.07 K, x1 = 0.79): 1.4163 ± 0.0002 | refractive index ([2]; 305.07 K, x1 = 0.902): 1.4197 ± 0.0002

COC(=O)CCCCC(=O)OC [dimethyl 1,6-hexanedioate] + CCCCCCCC
refractive index ([2]; 299.79 K, x1 = 0.099): 1.3955 ± 0.0002 | refractive index ([2]; 299.79 K, x1 = 0.2): 1.3985 ± 0.0002 | refractive index ([2]; 299.79 K, x1 = 0.302): 1.4014 ± 0.0002 | refractive index ([2]; 299.79 K, x1 = 0.4): 1.4047 ± 0.0002 | refractive index ([2]; 299.79 K, x1 = 0.5): 1.408 ± 0.001 | refractive index ([2]; 299.79 K, x1 = 0.602): 1.4113 ± 0.0002 | refractive index ([2]; 299.79 K, x1 = 0.701): 1.4146 ± 0.0002 | refractive index ([2]; 299.79 K, x1 = 0.8): 1.418 ± 0.0002 | refractive index ([2]; 299.79 K, x1 = 0.899): 1.4214 ± 0.0002

CCCCCCCCC [nonane]
refractive index ([1]; 299.25 K): 1.4015 ± 0.0002 | refractive index ([1]; 300.07 K): 1.4011 ± 0.0002 | refractive index ([1]; 300.85 K): 1.4007 ± 0.0002 | refractive index ([1]; 301.85 K): 1.4003 ± 0.0002 | refractive index ([1]; 302.57 K): 1.3999 ± 0.0002 | refractive index ([1]; 303.3 K): 1.3995 ± 0.0002 | refractive index ([1]; 303.83 K): 1.3993 ± 0.0002

COC(=O)CCCCC(=O)OC [dimethyl 1,6-hexanedioate]
refractive index ([1]; 293.15 K): 1.4275 ± 0.0002 | refractive index ([1]; 294.14 K): 1.4271 ± 0.0002 | refractive index ([1]; 295.19 K): 1.4267 ± 0.0002 | refractive index ([1]; 296.25 K): 1.4263 ± 0.0002 | refractive index ([1]; 298.35 K): 1.4254 ± 0.0002 | refractive index ([1]; 299.4 K): 1.425 ± 0.0002 and 1.4249 ± 0.0002 | refractive index ([1]; 300.18 K): 1.4246 ± 0.0002 | refractive index ([1]; 301 K): 1.4243 ± 0.0002 | refractive index ([1]; 301.84 K): 1.4239 ± 0.0002 | refractive index ([1]; 302.58 K): 1.4236 ± 0.0002 | refractive index ([1]; 303.19 K): 1.4234 ± 0.0002 | refractive index ([1]; 303.88 K): 1.4231 ± 0.0002
